Results reported in BigSolDB 2.1.

CCCSc1nc(N[C@@H]2C[C@H]2c2ccc(F)c(F)c2)c2nnn([C@@H]3C[C@H](OCCO)[C@@H](O)[C@H]3O)c2n1
solubility (mole fraction)
Conditions	273.15 K	278.15 K	283.15 K	288.15 K	293.15 K	298.15 K	303.15 K	308.15 K	313.15 K
in ethyl acetate	0.00246	0.00306	0.00399	0.00496	0.00602	0.00717	0.00899	0.0112	0.0139
in isopropanol	0.00074	0.00102	0.00138	0.00213	0.00304	0.00415	0.00571	0.00785	0.0112
in isopropyl acetate	0.0011	0.00136	0.00171	0.00205	0.00243	0.00295	0.00355	0.0045	0.00545
in n-butanol	0.00106	0.00155	0.0021	0.00278	0.00371	0.00476	0.00633	0.00826	0.0114
in n-propanol	0.00212	0.00288	0.00387	0.00513	0.00683	0.00958	0.0128	0.0165	0.0222
in sec-butanol	0.000855	0.00116	0.00181	0.00249	0.00359	0.00494	0.00693	0.00992	0.0137
